The source of these data is PMC7956626, “Phenylalanine-Derived β-Lactam TRPM8 Modulators. Configuration Effect on the Antagonist Activity” (International Journal of Molecular Sciences, 2021).

Entries after “also recorded” stand apart in the source; their conditions may differ.

In series [1] the target is T1, rat TRPM8 (Rattus norvegicus, UniProt Q8R455).
T1 construct: expressed in transfected cells; host or cells: HEK293 (human embryonic kidney), stably transfected
Further details: method as in PMID 32843690. As to conditions: ref [41]; cited from earlier work.

For series [2], the system named is oxaliplatin-induced allodynia. Details: method as in PMID 32843690. The settings on record: mice; from 15 to up to 60 min; ref [41]; cited from earlier work.
In the next series the test system is four tumor cell lines. Further details: method as in PMID 32843690. The settings on record: non-selective, ref [41]; cited from earlier work.
Another series concerns the target T2, hTRPV1 (Homo sapiens, UniProt Q8NER1).
T2 construct: expressed in transfected cells
As to the kind of experiment: Ca2+ influx assay, TRPV1 selectivity. It counts as cell-based. The settings on record: compound 50 μM; read-out: % TRPV1 Blockade at 50 μM. An excerpt:
(§1) Because some molecular cross-recognition may occur within thermoTRP members, we evaluated the effect of compounds 14 and 16 on recombinantly expressed hTRPV1 and hTRPA1 channels. Data shown in Table 2 indicate that these β–lactam derivatives marginally cross-reacted with these channels, thus substantiating that they are potent and selective inhibitors of TRPM8.

In series [3] the target is T1, rat TRPM8. Kind of series: Ca2+ intracellular influx assay (calcium microfluorimetry), menthol-induced. The settings on record: 100 μM menthol; for IC50 / % Blockade 5 μM / % Blockade 50 μM: HEK-rTRPM8; for % Blockade 5 μM: compound 5 μM; for % Blockade 50 μM: compound 50 μM; for Menthol-induced fluorescent signal: compound 10 μM, representative graph Figure A1. The class given is cell-based. As for the experimental part:
The four obtained diastereomeric compounds were evaluated for their ability to inhibit menthol-induced Ca^2+ intracellular influx into the cytosol on HEK293 cells heterologously expressing rat TRPM8. The well-known TRPM8 antagonist N-(3-aminopropyl)-2-[(3-methylphenyl)methoxy]-N-(2-thienylmethyl)-benzamide (AMTB) was used as control. Some representative graphs for compound 14 and 16 at 10 μM on HEK-rTRPM8 cells are included in Figure A1.
Compounds were evaluated for their activity against rTRPM8 using microfluorometry based calcium flux assays with Fluo-4 NW Ca^2+ dye and fluorescence were measured at excitation wavelength of 485 nm and emission wavelength of 520 nm using POLASTAR plate reader (BMG Labtech). Briefly human embryonic kidney cell line (HEK) stably transfected with rTRPM8 were seeded in 96-well plates at a cell density of 30,000 cells and 2 days before the medium was replaced with 100 μL of the dye loading solution Fluo-4 NW supplemented with probenecid 2.5 mM. After 1 h incubation at 37 °C, plates were transferred to the plate reader and the baseline fluorescence was recorded for 3 cycles before the addition of vehicle, compound at different concentrations and the antagonist, 10 μM AMTB for TRPM8. Fluorescence intensity was recorded during 7 more cycles and the agonist was added, 100 μM menthol. Fluorescence intensity was recorded during 10 more cycles.
Data analysis: the fluorescence values obtained for each compound concentration were normalized to that prompted by the control agonist (100 μM menthol). Decrease in menthol signal was expressed as percentage of inhibition (%). All data are expressed as the mean ± standard deviation (SD). Each condition was assessed in triplicate (n = 3) in 3 independent experiments (N = 3). The Z-factor was calculated in each assay using the following equation: […]. In all the experiments, the Z-factor was ≥ 0.5. To calculate IC50, normalized responses (%) versus log (μM) were adjusted to a non-linear fit with variable slope, a four-parameter dose–response curve following curve Y = 100/(1 + 10^((Log IC50-X) × HillSlope)) where […].

The target of another series is T3, hTRPA1 (Homo sapiens, UniProt O75762).
T3 construct: expressed in transfected cells
T3 sequence (O75762 whole entry): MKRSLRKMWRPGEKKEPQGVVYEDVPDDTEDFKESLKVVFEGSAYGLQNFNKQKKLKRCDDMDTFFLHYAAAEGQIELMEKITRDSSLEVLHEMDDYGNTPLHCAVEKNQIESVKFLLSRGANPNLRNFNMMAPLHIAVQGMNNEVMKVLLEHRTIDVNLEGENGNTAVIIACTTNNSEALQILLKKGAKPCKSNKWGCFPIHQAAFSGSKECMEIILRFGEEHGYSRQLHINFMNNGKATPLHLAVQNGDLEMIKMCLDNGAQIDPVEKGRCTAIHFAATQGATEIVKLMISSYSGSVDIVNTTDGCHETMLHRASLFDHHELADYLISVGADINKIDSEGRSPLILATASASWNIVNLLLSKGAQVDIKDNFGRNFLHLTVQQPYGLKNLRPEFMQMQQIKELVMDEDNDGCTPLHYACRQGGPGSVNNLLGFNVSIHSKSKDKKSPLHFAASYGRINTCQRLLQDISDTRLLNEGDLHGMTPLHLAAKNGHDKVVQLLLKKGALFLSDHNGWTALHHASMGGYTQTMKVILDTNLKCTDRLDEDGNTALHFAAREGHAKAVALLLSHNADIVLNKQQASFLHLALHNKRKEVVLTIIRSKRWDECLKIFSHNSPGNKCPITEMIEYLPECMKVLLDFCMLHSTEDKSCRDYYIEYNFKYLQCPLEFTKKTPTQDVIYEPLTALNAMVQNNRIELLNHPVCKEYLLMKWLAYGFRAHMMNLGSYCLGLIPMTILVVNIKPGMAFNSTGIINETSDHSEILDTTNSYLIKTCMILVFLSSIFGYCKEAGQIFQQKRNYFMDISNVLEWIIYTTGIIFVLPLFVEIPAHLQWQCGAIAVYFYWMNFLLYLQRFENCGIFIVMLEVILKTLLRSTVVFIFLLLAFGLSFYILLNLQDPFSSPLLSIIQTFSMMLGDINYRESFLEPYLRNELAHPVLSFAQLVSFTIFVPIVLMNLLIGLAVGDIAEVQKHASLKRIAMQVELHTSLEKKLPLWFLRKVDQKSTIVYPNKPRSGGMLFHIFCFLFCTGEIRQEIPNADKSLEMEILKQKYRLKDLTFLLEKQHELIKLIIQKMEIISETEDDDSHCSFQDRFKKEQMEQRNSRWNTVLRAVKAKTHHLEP
As to the kind of experiment: Ca2+ influx assay, TRPA1 selectivity. As to conditions: compound 50 μM; read-out: % TRPA1 Blockade at 50 μM. It counts as cell-based.
Source text: as §1

Another series concerns rat DRG sensory neurons. Kind of series: Current-clamp resting membrane potential of DRG sensory neurons. It counts as cell-based. The settings on record: compound 10 μM, t-test ns. As for the experimental part: Next, we investigated the effect of the membrane of rat DRG sensory neurons. […] Sensory neurons were functional as evidenced by action potentials fired exposed to 100 μM menthol (Figure 3A, top trace).
Current-Clamp recordings from rat DRGs were carried out 24–48 h after seeding on 12-mm Ø glass coverslips treated with poly-L-lysine solution and Laminin (Sigma Aldrich). The intracellular pipette solution contained (in mM): 4 NaCl, 126 K gluconate, 0.02 CaCl2, 1 MgSO4, 5 HEPES, 15 glucose, 3 ATP, 0.1 GTP and 5 EGTA, pH 7.2 with KOH. The extracellular solution contained (in mM): 140 NaCl, 4 KCl, 2 CaCl2, 2 MgCl2, 10 HEPES, 5 glucose and 20 mannitol, pH 7.4 with NaOH. The membrane potential was measured in the absence and the presence of compounds 14 and 16 at 10 μM in a time interval of 1 min.
(§2) Data were sampled at 10 kHz (EPC10 amplifier with PatchMaster 2.53 software, HEKA Electronics, Lambrecht, Germany) and low-pass filtered at 3 kHz for analysis (PatchMaster 2.53 and GraphPad Prism 5, Graphpad Software, USA). The series resistance was <10 MΩ and to minimize voltage errors was compensated to 60–80%. All measurements were performed at 24–25 °C. Cell capacitance was measured and used to estimate the current density (J, pA/pF).

In series [4] the target is T1, rat TRPM8. As to the kind of experiment: Whole-cell patch-clamp in HEK293 cells expressing rat TRPM8. It counts as cell-based. The settings on record: 100 μM menthol; for % Blockade at 10 μM: compound 10 μM, whole cell; for IC50: holding potential −60 mV. As for the experimental part:
In the electrophysiology assay, both compounds at 10 μM concentration were able to block TRPM8-mediated responses induced by menthol (Figure 2 and Figure A2, Table 3). […] After 10 μM of 14 was applied (Figure 2A, red), an important decrease on the menthol-induced TRPM8 activity at depolarizing voltages was observed. A similar behavior was detected after application of diastereomeric β–lactam 16 (Figure 2B). The dose–response curves for both compounds were obtained at a holding potential of −60 mV (Figure 2). The measured IC50 values were 0.9 ± 1.0 μM for 14 (Figure 2C) and 0.05 ± 1.3 μM for 16 (Figure 2D).
Whole-cell patch-clamp recordings from HEK-rTRPM8 cells were carried out 2 days after seeding on 12-mm Ø glass coverslips treated with poly-L-lysine solution (Sigma Aldrich, Spain); the intracellular pipette solution contained (in mM) 150 NaCl, 5 EGTA, 3 MgCl2 and 10 HEPES, adjusted to pH 7.2 with NaOH, and the extracellular solution contained (in mM) 150 NaCl, 6 CsCl, 1.5 CaCl2, 1 MgCl2, 10 D-glucose and 10 HEPES, adjusted to pH 7.4 with NaOH. The TRPM8 activity was measured by the application of two pulses of 100 μM menthol in a time interval of 2 min and a 30-s perfusion of the different compound concentrations before the second menthol pulse.
as §2
Data analysis: Results are expressed as the percentage of remaining activation of the TRPM8 channel. This is calculated by normalizing the ratio (p2/p1) of testing conditions to the ratio (p2/p1) of the control condition. Analysis of the data was performed by GraphPad 6.0, the Ordinary One-Way ANOVA analysis followed by the post hoc Bonferroni test stablished multiple comparisons and the ROUT method (Q = 10%) identified data outliers. A non-linear regression curve and IC50 were obtained by the representation of log (inhibitor) vs. response. All data are expressed as the mean ± standard error of the mean (SEM) (n = 5–8).
Background: In patch-clamp work, channel activity is measured electrically.

In a further series the test system is rat DRG neurons. Kind of series: Microelectrode array, KCl-evoked action potentials in DRG neurons. The class given is cell-based. As to conditions: compound 10 μM; 40 mM KCl. An excerpt: To further interrogate β–lactam derivatives’ action on the excitability of DRG neurons we next used microelectrode arrays (MEA). This technology records the electrogenic activity of neural populations that are located near to an electrode, but it cannot differentiate the number of neurons or other cells contributing to it. We used MEA chips with 60 electrodes and monitored the electrical activity at each electrode to measure if the potent inhibitory effect of β–lactam derivatives act on voltage-gated Na^+ and K^+ channels present in neurons and responsible for action potential propagation. Neurons isolated from neonatal rat dorsal root ganglions (DRG) were cultured on MEA chambers. The experimental paradigm consisted in applying a first 15-s pulse (P1) of 40 mM KCl, to evoke action potentials. […]
Data analysis: Data were analyzed using an MC_RACK spike sorter with a sample rate of 25 kHz and a Butterworth high-pass 2nd order filter applied with 200 Hz cutoff. […] Spiking activity was measured in a temporal interval of 30 s, starting right after instillation of the activating stimuli. […] The recorded signals were then processed to extract mean spike frequency for each pulse (P1–P2). Then, the ratio P2/P1 of mean spike frequency was calculated and normalized to vehicle for comparing the different conditions used.

The subject of the next series is TRPM8. Details: method as in PMID 25893043, PMID 30148953. As to conditions: healthy volunteers and migraneous patients, respectively; ref [35],[36]; cited from earlier work.

T1 sequence (Q8R455 whole entry): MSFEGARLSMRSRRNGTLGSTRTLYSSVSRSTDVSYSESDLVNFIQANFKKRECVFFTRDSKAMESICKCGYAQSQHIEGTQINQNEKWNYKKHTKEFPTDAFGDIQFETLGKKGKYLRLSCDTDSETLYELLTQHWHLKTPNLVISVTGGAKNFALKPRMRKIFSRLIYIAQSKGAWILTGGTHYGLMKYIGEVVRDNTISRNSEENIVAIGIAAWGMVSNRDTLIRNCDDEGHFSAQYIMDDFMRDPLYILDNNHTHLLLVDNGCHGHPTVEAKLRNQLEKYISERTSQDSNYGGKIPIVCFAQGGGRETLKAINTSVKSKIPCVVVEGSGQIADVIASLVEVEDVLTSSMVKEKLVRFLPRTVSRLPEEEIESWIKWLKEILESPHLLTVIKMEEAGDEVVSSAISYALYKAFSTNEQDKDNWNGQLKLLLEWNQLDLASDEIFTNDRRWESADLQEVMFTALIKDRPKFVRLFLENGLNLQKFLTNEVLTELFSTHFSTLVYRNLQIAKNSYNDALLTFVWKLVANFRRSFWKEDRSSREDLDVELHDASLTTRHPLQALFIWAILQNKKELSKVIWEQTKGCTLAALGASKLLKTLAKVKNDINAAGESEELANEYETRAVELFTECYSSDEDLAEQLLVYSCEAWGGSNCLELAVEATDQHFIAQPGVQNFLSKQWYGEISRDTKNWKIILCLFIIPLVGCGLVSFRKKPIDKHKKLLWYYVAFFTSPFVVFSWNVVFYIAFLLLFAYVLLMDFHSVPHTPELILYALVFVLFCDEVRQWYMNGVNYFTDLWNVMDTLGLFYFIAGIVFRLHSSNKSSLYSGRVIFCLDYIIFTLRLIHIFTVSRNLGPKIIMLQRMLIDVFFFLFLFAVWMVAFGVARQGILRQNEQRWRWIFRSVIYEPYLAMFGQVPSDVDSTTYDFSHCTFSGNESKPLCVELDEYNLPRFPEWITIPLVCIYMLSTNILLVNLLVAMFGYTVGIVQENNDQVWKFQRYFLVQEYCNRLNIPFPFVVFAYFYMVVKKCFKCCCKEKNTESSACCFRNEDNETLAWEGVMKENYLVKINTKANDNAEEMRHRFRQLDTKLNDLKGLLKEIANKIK
T2 sequence (Q8NER1 whole entry): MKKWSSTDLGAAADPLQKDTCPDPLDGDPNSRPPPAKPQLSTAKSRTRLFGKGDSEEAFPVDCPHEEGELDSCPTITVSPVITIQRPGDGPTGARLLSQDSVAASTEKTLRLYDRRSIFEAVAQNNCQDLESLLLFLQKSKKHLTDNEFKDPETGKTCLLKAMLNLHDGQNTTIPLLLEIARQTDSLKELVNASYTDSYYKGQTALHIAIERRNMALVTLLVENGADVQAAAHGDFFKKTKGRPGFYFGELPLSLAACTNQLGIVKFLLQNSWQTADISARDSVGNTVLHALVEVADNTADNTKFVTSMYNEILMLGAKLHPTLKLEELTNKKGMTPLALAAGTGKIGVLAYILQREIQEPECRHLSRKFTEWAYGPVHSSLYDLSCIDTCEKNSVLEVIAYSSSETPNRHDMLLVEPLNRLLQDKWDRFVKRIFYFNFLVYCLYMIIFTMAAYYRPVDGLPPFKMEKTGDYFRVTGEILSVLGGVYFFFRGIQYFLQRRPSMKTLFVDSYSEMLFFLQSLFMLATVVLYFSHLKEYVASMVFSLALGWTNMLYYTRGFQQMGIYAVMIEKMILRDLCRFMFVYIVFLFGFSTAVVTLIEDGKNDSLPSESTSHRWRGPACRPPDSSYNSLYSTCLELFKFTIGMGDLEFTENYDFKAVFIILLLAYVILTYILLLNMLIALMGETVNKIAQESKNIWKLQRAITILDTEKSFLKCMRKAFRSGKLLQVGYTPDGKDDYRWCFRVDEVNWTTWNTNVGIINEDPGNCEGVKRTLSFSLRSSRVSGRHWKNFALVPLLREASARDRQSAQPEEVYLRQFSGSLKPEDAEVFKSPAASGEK

Take `C[C@@H]1C(=O)N(C[C@H](Cc2ccccc2)NC(=O)OCc2ccccc2)[C@]1(Cc1ccccc1)C(=O)OCc1ccccc1` [Compound 1]: the “Block of channel activation by menthol (Ca2+ entry assay)” value on rat TRPM8 [1] is “micromolar values”. The Oxaliplatin-induced allodynia result in series [2] is recorded as “significantly reduces the oxaliplatin-induced allodynia”. In the series on four tumor cell lines, the Antitumor activity result is “micromolar potency in four tumor cell lines”.

As usually defined, the IC50 is the concentration at which inhibition is half-maximal. As to `C[C@@H]1C(=O)N(C[C@H](Cc2ccccc2)N(Cc2ccccc2)Cc2ccccc2)[C@]1(Cc1ccccc1)C(=O)OCc1ccccc1` [Compound 13, 4S-Benzyl-1-[(2′S-dibenzylamino-3′-phenyl-)prop-1′-yl]-4-benzyloxicarbonyl-3S-methyl-2-oxoazetidine], the inhibition at 50 µM on hTRPV1 came to 7.9 ± 3.2%. Further, at rat TRPM8 [3], the IC50 came to 3100 ± 1100 nM, the “% Blockade 5 μM” value amounted to 57.7 ± 7.2% and the “% Blockade 50 μM” value was 86.1 ± 5.0%. Further, on hTRPA1, the inhibition at 50 µM turned out to be 3.7 ± 4.1%.

As to `C[C@@H]1C(=O)N(C[C@@H](Cc2ccccc2)N(Cc2ccccc2)Cc2ccccc2)[C@]1(Cc1ccccc1)C(=O)OCc1ccccc1` [Compound 14, 4S-Benzyl-1-[(2′R-dibenzylamino-3′-phenyl)prop-1′-yl]-4-benzyloxicarbonyl-3S-methyl-2-oxoazetidine], in the series on rat DRG sensory neurons, the “Effect on resting membrane potential” value was “do not affect the membrane resting potential”. Further, the inhibition at 50 µM at hTRPV1 was 2.8 ± 4.1%. For the same compound, on rat TRPM8 [4], the “% Blockade at 10 μM” value was 77.2 ± 2.7% and the IC50 turned out to be 900 ± 1000 nM. At rat TRPM8 [3], the “% Blockade 5 μM” value was determined as 78.9 ± 1.7%, the Menthol-induced fluorescent signal result is listed as “completely blocked” and the “% Blockade 50 μM” value was found to be 87.7 ± 3.1%. The inhibition at 50 µM on hTRPA1 was 2.4 ± 1.4%. For the same compound, the “Effect on potassium-evoked action potentials (electrogenicity)” value with rat DRG neurons is reported as “do not alter potassium-evoked action potentials; also recorded: did not affected the electrogenicity”.

In the case of `C[C@H]1C(=O)N(C[C@H](Cc2ccccc2)N(Cc2ccccc2)Cc2ccccc2)[C@@]1(Cc1ccccc1)C(=O)OCc1ccccc1` [Compound 15, 4R-Benzyl-1-[(2′S-dibenzylamino-3′-phenyl)prop-1′-yl]-4-benzyloxicarbonyl-3R-methyl-2-oxoazetidine], the inhibition at 50 µM on hTRPV1 came out at 5.3 ± 3.4%. For the same compound, at rat TRPM8 [3], the IC50 was found to be 700 ± 1100 nM, the “% Blockade 5 μM” value is 71.1 ± 4.3% and the “% Blockade 50 μM” value is listed as 90.3 ± 2.8%. Also, on hTRPA1, the inhibition at 50 µM was 2.6 ± 1.9%.

Consider `C[C@H]1C(=O)N(C[C@@H](Cc2ccccc2)N(Cc2ccccc2)Cc2ccccc2)[C@@]1(Cc1ccccc1)C(=O)OCc1ccccc1` [Compound 16, 4R-Benzyl-1-[(2′R-dibenzylamino-3′-phenyl-)prop-1′-yl]-4-benzyloxicarbonyl-3R-methyl-2-oxoazetidine], for which, in the series on rat DRG sensory neurons, the “Effect on resting membrane potential” value is “do not affect the membrane resting potential”. The inhibition at 50 µM on hTRPV1 came out at 4.2 ± 3.2%. Besides, at rat TRPM8 [4], the “% Blockade at 10 μM” value is 79.3 ± 2.7% and the IC50 came out at 50 nM. For the same compound, on rat TRPM8 [3], the “% Blockade 5 μM” value worked out at 87.3 ± 8.1%, the Menthol-induced fluorescent signal entry is reported as “completely blocked” and the “% Blockade 50 μM” value is 98.5 ± 3.2%. The inhibition at 50 µM on hTRPA1 amounted to 0.5 ± 4.1%. The “Effect on potassium-evoked action potentials (electrogenicity)” value in the series with rat DRG neurons is listed as “do not alter potassium-evoked action potentials; also recorded: did not affected the electrogenicity”.

As for `C[C@H](c1ccc(F)cc1)N(Cc1cccc(C(=O)O)c1)C(=O)c1cnc2ccccc2c1` [PF-05105679], the “Adverse effects in phase I clinical trials” value in the series with TRPM8 is on record as “several adverse effects, including feeling hot”.
